{"source": "patent US9221876B2", "about": "“Methods for treating kidney disease with fragments of ApoB-100” (Cedars-Sinai Medical Center, priority 2011, dated 2015)", "format_in_all_cases": "in vivo, apoE (−/−) male mice", "key": {"[1]": {"test_system": "Angiotensin II type 1 receptor (AT1R)", "assay": "AT1R expression in aorta, Western blot with densitometric analysis, after p210 immunization and AngII infusion", "settings": "100 μg p210/cBSA/Alum s.c. at 7, 10, 12 weeks of age; AngII 1000 ng/Kg/min by osmotic pump for 4 weeks; vs cBSA/Alum and PBS; N=6 each", "source_text": "N=6 in each group. p210: immunized with p210/cBSA/Alum+AngII; cBSA: immunized with cBSA/Alum+AngII; PBS: immunized with PBS+AngII.\n(§1) The inventors assessed the effect of p210 immunization on AngII-induced renal inflammatory responses in apoE (−/−) male mice. For the experiments described herein, native p210 peptide (KTTKQ SFDLS VKAQY KKNKH) was conjugated to cationic bovine serum albumin (cBSA) as carrier. Alum was used as an adjuvant. At 7, 10, and 12 weeks of age, male apoE (−/−) mice were subcutaneously injected with 100 μg of p210/cBSA/Alum. As immunization controls, 100 μg of cBSA/Alum, or PBS were injected. At 10 weeks of age after first immunization booster, 1000 ng/Kg/min of AngII was delivered by subcutaneously implanted osmotic pump for 4 weeks (FIG. 1A)."}, "[2]": {"assay": "Serum creatinine level (indicator of renal function), creatinine assay kit, AngII-induced renal damage", "protocol": "as §1\nSerum creatinine (Cr.) (an indicator of renal function) level at 14 weeks of age was assessed by commercially available creatinine assay kit following the manufacture's instruction. […] N: p210=12, cBSA=11, PBS=9."}, "IL-6": {"test_system": "IL-6", "assay": "IL-6 mRNA expression in kidney, quantitative PCR", "settings": "p210/cBSA/Alum+AngII vs cBSA/Alum+AngII and PBS+AngII; N=8 each; p<0.05", "protocol": "as §1\n(§2) At euthanasia, kidney was harvested for quantitative PCR analysis or histological analysis. Data are presented as mean±SEM. Data were analyzed by ANOVA following post-hoc test for multiple group comparison."}, "MCP-1": {"test_system": "MCP-1", "assay": "MCP-1 mRNA expression in kidney, quantitative PCR", "settings": "p210/cBSA/Alum+AngII vs cBSA/Alum+AngII and PBS+AngII; N=8 each; p<0.05", "protocol": "as §1, §2"}, "TNF-α": {"test_system": "TNF-α", "assay": "TNF-α mRNA expression in kidney, quantitative PCR", "settings": "p210/cBSA/Alum+AngII vs cBSA/Alum+AngII and PBS+AngII; N=10 each; p<0.05", "protocol": "as §1, §2"}, "[3]": {"test_system": "glomerular ROS production", "assay": "Glomerular ROS (superoxide) production, in situ dihydroethidium (DHE) labeling of frozen kidney sections", "settings": "p210/cBSA/Alum+AngII vs cBSA/Alum+AngII and PBS+AngII; N=4 each; p<0.05", "source_text": "(A) Representative figure of in situ DHE labeling. (B) Densitometric analysis of DHE fluorescence. *p<0.05 vs. p210. N=4 each. p210: immunized with p210/cBSA/Alum+AngII; cBSA: immunized with cBSA/Alum+AngII; PBS: immunized with PBS+AngII.\nas §1\nSuperoxide production in kidney was measured by in situ dihydroethidium (DHE) methods with freshly cut frozen sections."}, "[4]": {"test_system": "NOX1, a component of NADPH oxidase", "assay": "NOX1 expression in kidney", "settings": "p210/cBSA/Alum+AngII vs cBSA/Alum+AngII and PBS+AngII; N=8 each; p<0.05", "source_text": "(§3) (Left): PAI-1. N=5 each, (Right): TGF-β. N=9 each. *p<0.05 vs. p210. p210: immunized with p210/cBSA/Alum+AngII; cBSA: immunized with cBSA/Alum+AngII; PBS: immunized with PBS+AngII.\nas §1, §2\n(§4) These anti-hypertensive and renal protective effects are associated with significant reduction of inflammatory cytokines and chemokine gene expression, ROS production mediated by NADPH oxidase, and profibrotic gene expression in kidney. […]"}, "PAI-1": {"test_system": "PAI-1", "assay": "PAI-1 mRNA expression in kidney", "settings": "p210/cBSA/Alum+AngII vs cBSA/Alum+AngII and PBS+AngII; N=5 each; p<0.05", "source_text": "as §3, §1, §2, §4"}, "TGF-β": {"test_system": "TGF-β", "assay": "TGF-β mRNA expression in kidney", "settings": "p210/cBSA/Alum+AngII vs cBSA/Alum+AngII and PBS+AngII; N=9 each; p<0.05", "source_text": "as §3, §1, §2, §4"}}, "note": "Entries after “also recorded” stand apart in the source; their conditions may differ. No end group written: not given here."}
{"substance": "KTTKQ SFDLS VKAQY KKNKH (KTTKQSFDLSVKAQYKKNKH; also: conjugated to cationic BSA carrier) [Peptide P210, amino acids 3136-3155 of human ApoB-100; tested conjugated to cationic bovine serum albumin (cBSA) as carrier, Alum as adjuvant]", "values": [{"measurement": "expression of Angiotensin II type 1 receptor (AT1R) in aorta", "setting": "[1]", "result": "significantly decreased"}, {"measurement": "Serum Cr.", "setting": "[2]; at 14 weeks of age, 100 μg p210/cBSA/Alum s.c. at 7, 10, 12 weeks, AngII infusion 4 weeks, mean±SEM, N p210=12", "result": "0.6 ± 0.1", "unit": "mg/dL"}, {"measurement": "Serum creatinine level vs cBSA and PBS groups", "setting": "[2]; at 14 weeks of age, p<0.05", "result": "significantly lower"}, {"measurement": "AngII-induced renal damage", "setting": "[2]; p210 immunization, AngII infusion 4 weeks", "result": "protected against AngII-induced renal damage; also recorded: significantly attenuated"}, {"measurement": "IL-6 mRNA expression in kidney", "setting": "IL-6", "result": "down-regulated; also recorded: significantly reduced"}, {"measurement": "MCP-1 mRNA expression in kidney", "setting": "MCP-1", "result": "down-regulated; also recorded: significantly reduced"}, {"measurement": "TNF-α mRNA expression in kidney", "setting": "TNF-α", "result": "down-regulated; also recorded: significantly reduced"}, {"measurement": "glomerular ROS production (DHE fluorescence)", "setting": "[3]", "result": "significantly reduced"}, {"measurement": "NOX1 expression in kidney", "setting": "[4]", "result": "significantly reduced"}, {"measurement": "PAI-1 mRNA expression in kidney", "setting": "PAI-1", "result": "significantly downregulated; also recorded: significantly reduced"}, {"measurement": "TGF-β mRNA expression in kidney", "setting": "TGF-β", "result": "significantly downregulated; also recorded: significantly reduced"}]}
